From PMC6934184, “Selective DNA-PKcs inhibition extends the therapeutic index of localized radiotherapy and chemotherapy” (The Journal of Clinical Investigation, 2019)

Target: T1, MAP3K7/MAP3K7IP1 (TAK1-TAB1) (Homo sapiens, UniProt O43318)
T1 construct: purchased Thermo Fisher Scientific (Life Technologies) SelectScreen
Experiment: SelectScreen LanthaScreen
Format: binding
Settings: read-out: % displacement
In short: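 SelectScreen broad panel; activity (Z'LYTE, Adapta) plus binding formats. ATP: Km app for CSF1R Z'LYTE; 10 for CAMK1 Adapta. Readout = % per kinase.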

T1 sequence (O43318 1-303 limits assumed): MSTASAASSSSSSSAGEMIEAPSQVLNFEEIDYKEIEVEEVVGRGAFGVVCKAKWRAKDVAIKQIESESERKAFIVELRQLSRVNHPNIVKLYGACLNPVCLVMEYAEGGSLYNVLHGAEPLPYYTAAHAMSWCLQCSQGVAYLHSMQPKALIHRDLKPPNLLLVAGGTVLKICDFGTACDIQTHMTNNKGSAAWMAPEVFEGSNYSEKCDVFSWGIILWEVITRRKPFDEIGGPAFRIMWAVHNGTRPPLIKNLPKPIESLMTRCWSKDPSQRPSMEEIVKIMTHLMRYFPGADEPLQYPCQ
T1 sequence (Q15750 437-504 partner limits assumed): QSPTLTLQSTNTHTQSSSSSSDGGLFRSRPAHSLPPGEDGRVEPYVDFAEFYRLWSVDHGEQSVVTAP

## CN(C(=O)CN1CCOCC1)c1ccc2sc3c(-c4cccc5c(=O)cc(N6CC7CCC(C6)O7)oc45)cccc3c2c1 [NU5455]
  inhibition at 1 µM: -3.4%
